For one assay, the system named is TcCCE34. Put plainly: inhibition of alpha-naphthyl acetate hydrolysis. Format: biochemical, Tetranychus cinnabarinus. Conditions: 3 × 10^−4 mol/L alpha-naphthyl acetate; 10 min preincubation 30 °C; 5% acetone.
The target of the next assay is T1, TcGSTm8 (Tetranychus cinnabarinus, UniProt U5YE47).
T1 sequence (U5YE47 1-227): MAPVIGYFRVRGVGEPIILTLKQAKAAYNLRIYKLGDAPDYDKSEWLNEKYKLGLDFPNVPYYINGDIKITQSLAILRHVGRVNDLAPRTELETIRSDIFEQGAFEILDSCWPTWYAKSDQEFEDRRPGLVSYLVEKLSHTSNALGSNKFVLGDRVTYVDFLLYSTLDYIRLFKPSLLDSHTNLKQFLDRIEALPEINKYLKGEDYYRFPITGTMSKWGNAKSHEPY
In words: inhibition of CDNB conjugation. In kind it is biochemical. To be noted: 6 mM GSH; 0.6 mM CDNB; 10 min preincubation 25 °C; 5% acetone.

We go through 3 compounds from publication PMC12375005 (Communications Biology, 2025).

Each structure is given as a SMILES string.

With `CCOP(=S)(OCC)Oc1nc(Cl)c(Cl)cc1Cl` [chlorpyrifos], the values for the half-maximal inhibitory concentration (IC50) in the assay on TcCCE34 and at TcGSTm8 were 57.2 ± 7.42 µM and 1180 ± 90 µM, respectively.
Take `COCCOC(=O)C(C#N)(C(=O)c1ccccc1C(F)(F)F)c1ccc(C(C)(C)C)cc1` (stereo not drawn) [cyflumetofen]: the figures for the half-maximal inhibitory concentration (IC50) in the assay with TcCCE34 and against TcGSTm8 were 630 ± 39.8 µM and 1570 ± 110 µM, respectively.
For `CC1(C)C(C(=O)OC(C#N)c2cccc(Oc3ccccc3)c2)C1(C)C` (stereo not drawn) [fenpropathrin] the same measures were 42.5 ± 8.44 µM and 1090 ± 50 µM.
